Laboratory results from patent publication US20200009118A1, “COMPOSITIONS AND METHODS FOR THE TREATMENTOF NEURODEGENERATIVE AND OTHER DISEASES” (Glialogix, Inc., priority 2017, published 2020).

Key:
[1] = system: xCT mRNA in primary rat astrocyte cells; assay: qPCR of xCT mRNA in primary astrocytes; type: cell-based
Experimental: (§1) Primary rat astrocyte cells were purchased from All Cells (Catalog #RCTX-001F, Alameda, Calif.), thawed and resuspended in 13.4 ml of DMEM media (Catalog #12-614F, Lonza, Allendale, N.J.) supplemented with 15% v/v FBS (Catalog #F4135, Sigma-Aldrich, St. Louis, Mo.) and 560 μL aliquoted into wells in a 24-well plate. Cells were incubated at 37° C. with 5% CO2. For each qPCR experiment, 2-3 wells (approximately 42,000-63,000 cells) were transferred to a new 24-well plate with fresh astrocyte media, composed of 50% v/v DMEM, 50% v/v Neurobasal media (Catalog #12348-017), Life Technologies, supplemented with 2 mM glutamine, 300 μM L-cystine. Following 24 hours, cells were then mixed and aliquoted into 24 well plates at approximately 10,000 cells per well in the same media. Compounds to be tested were then added at the indicated concentrations and cells harvested 18 hours later by washing once with PBS (Catalog #P5493, Sigma-Aldrich) and then treated with 300 μl of StemProAccutase cell dissociation reagent (Catalog #A11105-01, Life Technologies) and incubated for 5-10 minutes at 37° C. PBS (300 μl) was added and the cells spun down in a microfuge for 5 minutes at 2,000×g at 4° C. The supernatant was removed and mRNA was isolated from the cells by using the Purelink microscale RNA extraction kit (Catalog #12183016, Life Technologies) according to the manufacturer's instructions. The mRNA resuspended in 12-22 μl of RNase-free water. cDNA was prepared by use of the Superscript VILO kit (Catalog #11755050, Life Technologies) according to the manufacturer's instructions. The cDNA was eluted in a final volume of 20 μl RNase-free water in and 4 μl was used for each qPCR reaction. qPCR reactions and primers were as described in Example 11.
(§2) To determine if tunicamycin increased levels of xCT mRNA, Tunicamycin (5 ng/ml) was added to the primary astrocyte cell cultures in astrocyte media. xCT gene expression was determined by qPCR after 18 hours of exposure to tunicamycin.
(§3) The Cycle threshold is abbreviated Ct. The change in Ct equals [Ct (minus test agent)−Ct (plus test agent)]. Changes in Ct of the test genes xCT and Lcn-2 are normalized by subtracting the change in Ct of the control gene, either gamma-actin or Hypoxanthine-guanine phosphoribosyl transferase (HPRT). Ct values are converted to absolute values by the formula: absolute value=2^^(normalized change in Ct). Absolute values are converted to percent change by multiplying the absolute value by 100.
(§4) Using the methods described in Example 11, various agents known to cause activation of neuroinflammatory cells and/or cause or reflect stress and damage to neurons, axons and/or oligodendrocytes were tested for causing an increase in xCT levels in primary rat astrocytes.

[2] = system: Lcn-2 mRNA in primary rat astrocyte cells; assay: qPCR of Lcn-2 mRNA in primary astrocytes; type: cell-based; conditions: astrocyte media
Experimental: as §1, §2, §3, §4

2D2-TCR MOG (2D2) mice = assay: 2D2 mouse model of optic neuritis, myelin staining of the optic nerve; type: in vivo; conditions: for Number of animals, average myelin content score Low / Number of animals, average myelin content score high / Number of animals, average myelin content score moderate: sulfasalazine 200 mg/kg or memantine 5 mg/kg IP BID
Description: This model serves as an inducible model of optic neuritis with a high rate of penetrance. The development of optic neuritis was monitored by animal observation and histopathology.
Female 2D2 (strain C57BL/6-Tg(Tcra2D2,Tcrb2D2)1Kuch/J) and WT mice (C57BL/6) were purchased from The Jackson Laboratory. Each cohort size was 14 animals. Mice were delivered to Ophthy-DS (Kalamazoo, Mich.) under the supervision of Renovo Neural (Cleveland, Ohio) at 8-12 weeks of age and then acclimated for an additional 4 weeks before beginning the experiment. Animals were housed in pathogen-free, individually-ventilated, enriched cages on a 12 h:12 h light:dark cycle with food and water ad libitum. Mice were monitored daily for welfare and symptoms of optic neuritis.
After 4 weeks of acclimation, animals were randomized by weight into 4 groups of 14 animals each. To induce optic neuritis, 200 ng of Pertussis toxin was injected into the 2D2 animals on days 1 and 3 as described by Guan et al. Dosing of vehicle or treatment compounds began at day 1. The four cohorts are: • (1) WT mice (C57BL/6) treated with vehicle (200 μl saline IP, BID). This cohort serves as a control for the readouts of optic neuritis disease. • (2) 2D2 mice vehicle treated with vehicle (200 μl saline IP, BID). […] The memantine-treated group served as a control for anti-glutamatergic therapy in the 2D2 model of optic neuritis.
On day 30, animals were euthanized and perfused. Optic nerves and retinas were dissected out and embedded in paraffin and sections mounted on slides. 5-7 sections of the optic nerve (from one eye) from ten animals in each cohort were stained by Toluidine Blue. Histopathological analysis of the slides and quantitation of the myelin staining intensity was performed blinded by a board-certified pathologist, Dr. Igor Polyakov (Minneapolis, Minn.). Staining intensity of each slide was graded as either low, moderate or high. Both peripheral and central sections of the optic nerve were graded. The intensity of the myelin staining between the cohorts on a per section and a per animal basis was compared using chi-square and Fishers' exact test with a p<0.05 considered significant.
On a per animal basis, this yielded 20 scores per cohort: average score per section×2 scores per animal (peripheral or central)×10 animals per cohort. On a per section basis, this yielded approximately 110 score per cohort: score per section×5-7 sections per animal×2 scores per section (peripheral or central)×10 animals per cohort.

[3] = 5 μM, astrocyte media, control gene gamma-actin
[4] = 50 μM, astrocyte media, control gene gamma-actin
[5] = 5 ng/ml, astrocyte media, 18 hours
[6] = 25 ng/ml, astrocyte media, control gene HPRT
[7] = 25 ng/ml, astrocyte media, control gene gamma-actin
[8] = 200 ng/ml, astrocyte media, control gene gamma-actin
[9] = 2 μg/ml, astrocyte media, control gene gamma-actin
[10] = 20 ug/ml, astrocyte media, control gene gamma-actin
[11] = 1 ng/ml, astrocyte media, control gene HPRT
[12] = 1 ng/ml, astrocyte media, control gene gamma-actin
[13] = 100 ng/ml, astrocyte media, control gene HPRT
[14] = 100 ng/ml, astrocyte media, control gene gamma-actin
[15] = Total (central + peripheral, 20 scores), day 30
[16] = per section basis, Central Region, day 30
[17] = per section basis, Peripheral Region, day 30
[18] = per section basis, Total, day 30

Molecule: OO [H2O2, Hydrogen Peroxide]
- xCT, Change in Ct normalized to control gene [1, 3]: 2.484
- xCT, Fold change normalized [1, 3]: 5.59
- xCT, Percent change normalized [1, 3]: 559%
- xCT, Change in Ct normalized to control gene [1, 4]: 2.588
- xCT, Fold change normalized [1, 4]: 6.01
- xCT, Percent change normalized [1, 4]: 601%
- Lcn-2, Percent change normalized ([2]; 5 μM, control gene gamma-actin): 15%
- Lcn-2, Percent change normalized ([2]; 50 μM, control gene gamma-actin): 19%

Molecule: Tunicamycin
- xCT, Absolute change normalized to Gamma-actin [1, 5]: 56.1
- xCT, Absolute change normalized to HPRT [1, 5]: 23.1
- xCT, Change in Ct (not normalized) [1, 5]: 5.529
- xCT, Change in Ct normalized to Gamma actin [1, 5]: 5.809
- xCT, Change in Ct normalized to HPRT [1, 5]: 4.530
- xCT, Ct with agent [1, 5]: 25.060
- xCT, Percent change normalized to Gamma-actin [1, 5]: 5,606%
- xCT, Percent change normalized to HPRT [1, 5]: 2,310%
- xCT expression increased by ([1]; 5 ng/ml, regardless of normalization to gamma-actin or HPRT): over 2,000%
- xCT, Change in Ct normalized to control gene [1, 6]: 4.540
- xCT, Fold change normalized [1, 6]: 23.26
- xCT, Percent change normalized [1, 6]: 2,326%
- xCT, Change in Ct normalized to control gene [1, 7]: 5.915
- xCT, Fold change normalized [1, 7]: 60.34
- xCT, Percent change normalized [1, 7]: 6,034%
- Lcn-2, Absolute change normalized to Gamma-actin ([2]; 5 ng/ml, 18 hours): 64.6
- Lcn-2, Absolute change normalized to HPRT ([2]; 5 ng/ml, 18 hours): 32.3
- Lcn-2, Change in Ct (not normalized) ([2]; 5 ng/ml, 18 hours): 5.734
- Lcn-2, Change in Ct normalized to Gamma actin ([2]; 5 ng/ml, 18 hours): 6.014
- Lcn-2, Change in Ct normalized to HPRT ([2]; 5 ng/ml, 18 hours): 5.015
- Lcn-2, Ct with agent ([2]; 5 ng/ml, 18 hours): 27.123
- Lcn-2, Percent change normalized to Gamma-actin ([2]; 5 ng/ml, 18 hours): 6,460%
- Lcn-2, Percent change normalized to HPRT ([2]; 5 ng/ml, 18 hours): 3,230%
- Lcn-2, Percent change normalized ([2]; 25 ng/ml, control gene HPRT): 2,290%
- Lcn-2, Percent change normalized ([2]; 25 ng/ml, control gene gamma-actin): 5,940%

Molecule: Pam2CSK4
- xCT, Change in Ct normalized to control gene [1, 8]: 0.65
- xCT, Fold change normalized [1, 8]: 1.57
- xCT, Percent change normalized [1, 8]: 157%
- Lcn-2, Percent change normalized ([2]; 200 ng/ml, control gene gamma-actin): 1,602%

Molecule: A-beta 1-40: A-beta 1-40 peptide, misfolded/aggregated protein
- xCT, Change in Ct normalized to control gene [1, 9]: 0.276
- xCT, Fold change normalized [1, 9]: 1.21
- xCT, Percent change normalized [1, 9]: 121%
- xCT, Change in Ct normalized to control gene [1, 10]: 0.951
- xCT, Fold change normalized [1, 10]: 1.93
- xCT, Percent change normalized [1, 10]: 193%
- Lcn-2, Percent change normalized ([2]; 2 μg/ml, control gene gamma-actin): 130%
- Lcn-2, Percent change normalized ([2]; 20 ug/ml, control gene gamma-actin): 140%

Molecule: IL1-beta: inflammatory cytokine
- xCT, Change in Ct normalized to control gene [1, 11]: 1.536
- xCT, Fold change normalized [1, 11]: 2.90
- xCT, Percent change normalized [1, 11]: 290%
- xCT, Change in Ct normalized to control gene [1, 12]: 1.538
- xCT, Fold change normalized [1, 12]: 2.90
- xCT, Percent change normalized [1, 12]: 290%
- xCT, Change in Ct normalized to control gene [1, 13]: 1.515
- xCT, Fold change normalized [1, 13]: 2.86
- xCT, Percent change normalized [1, 13]: 286%
- xCT, Change in Ct normalized to control gene [1, 14]: 2.560
- xCT, Fold change normalized [1, 14]: 5.90
- xCT, Percent change normalized [1, 14]: 590%
- Lcn-2, Percent change normalized ([2]; 1 ng/ml, control gene HPRT): 23,480%
- Lcn-2, Percent change normalized ([2]; 1 ng/ml, control gene gamma-actin): 23,522%
- Lcn-2, Percent change normalized ([2]; 100 ng/ml, control gene HPRT): 9,185%
- Lcn-2, Percent change normalized ([2]; 100 ng/ml, control gene gamma-actin): 18,958%

Molecule: CC12CC3CC(C)(C1)CC(N)(C3)C2 [memantine]
- Number of animals, average myelin content score Low (2D2-TCR MOG (2D2) mice; Central Region, day 30): 0
- Number of animals, average myelin content score high (2D2-TCR MOG (2D2) mice; Central Region, day 30): 3
- Number of animals, average myelin content score moderate (2D2-TCR MOG (2D2) mice; Central Region, day 30): 7
- Number of animals, average myelin content score Low (2D2-TCR MOG (2D2) mice; Peripheral Region, day 30): 2
- Number of animals, average myelin content score high (2D2-TCR MOG (2D2) mice; Peripheral Region, day 30): 3
- Number of animals, average myelin content score moderate (2D2-TCR MOG (2D2) mice; Peripheral Region, day 30): 5
- Number of animal scores, myelin content High (2D2-TCR MOG (2D2) mice; [15]): 6
- Number of animal scores, myelin content Low (2D2-TCR MOG (2D2) mice; [15]): 2
- Number of animal scores, myelin content Moderate (2D2-TCR MOG (2D2) mice; [15]): 12
- myelin content compared to the vehicle-treated 2D2 animals (2D2-TCR MOG (2D2) mice; optic nerve, day 30): highly significant increase in myelin content
- Number of sections, myelin content Low (2D2-TCR MOG (2D2) mice; [16]): 0
- Number of sections, myelin content high (2D2-TCR MOG (2D2) mice; [16]): 14
- Number of sections, myelin content moderate (2D2-TCR MOG (2D2) mice; [16]): 41
- Number of sections, myelin content Low (2D2-TCR MOG (2D2) mice; [17]): 10
- Number of sections, myelin content high (2D2-TCR MOG (2D2) mice; [17]): 14
- Number of sections, myelin content moderate (2D2-TCR MOG (2D2) mice; [17]): 31
- Number of section scores, myelin content High (2D2-TCR MOG (2D2) mice; [18]): 28
- Number of section scores, myelin content Low (2D2-TCR MOG (2D2) mice; [18]): 10
- Number of section scores, myelin content Moderate (2D2-TCR MOG (2D2) mice; [18]): 72
- Percent scores, Myelin content-Total High (2D2-TCR MOG (2D2) mice; per-animal basis): 30%
- Percent scores, Myelin content-Total Low (2D2-TCR MOG (2D2) mice; per-animal basis): 10%
- Percent scores, Myelin content-Total Moderate (2D2-TCR MOG (2D2) mice; per-animal basis): 60%
- Percent scores, Myelin content-Total High (2D2-TCR MOG (2D2) mice; per-section basis): 25%
- Percent scores, Myelin content-Total Low (2D2-TCR MOG (2D2) mice; per-section basis): 9%
- Percent scores, Myelin content-Total Moderate (2D2-TCR MOG (2D2) mice; per-section basis): 65%
